The compounds below were run against Sodium channel protein type 5 subunit alpha (Homo sapiens, UniProt Q14524) (assay: Electrophysiological Assay: Patch voltage clamp electrophysiology allows for the direct measurement and quantification of block of voltage-gated sodium channels (NaV's), and allows the determination of the time- and voltage-dependence of block which has been interpreted as differential binding to the resting, open, and inactivated states of the sodium channel (Hille, B., Journal of General …).
Assay type: cell-based, HEK293

Sodium channel protein type 5 subunit alpha, sequence (Q14524 whole entry): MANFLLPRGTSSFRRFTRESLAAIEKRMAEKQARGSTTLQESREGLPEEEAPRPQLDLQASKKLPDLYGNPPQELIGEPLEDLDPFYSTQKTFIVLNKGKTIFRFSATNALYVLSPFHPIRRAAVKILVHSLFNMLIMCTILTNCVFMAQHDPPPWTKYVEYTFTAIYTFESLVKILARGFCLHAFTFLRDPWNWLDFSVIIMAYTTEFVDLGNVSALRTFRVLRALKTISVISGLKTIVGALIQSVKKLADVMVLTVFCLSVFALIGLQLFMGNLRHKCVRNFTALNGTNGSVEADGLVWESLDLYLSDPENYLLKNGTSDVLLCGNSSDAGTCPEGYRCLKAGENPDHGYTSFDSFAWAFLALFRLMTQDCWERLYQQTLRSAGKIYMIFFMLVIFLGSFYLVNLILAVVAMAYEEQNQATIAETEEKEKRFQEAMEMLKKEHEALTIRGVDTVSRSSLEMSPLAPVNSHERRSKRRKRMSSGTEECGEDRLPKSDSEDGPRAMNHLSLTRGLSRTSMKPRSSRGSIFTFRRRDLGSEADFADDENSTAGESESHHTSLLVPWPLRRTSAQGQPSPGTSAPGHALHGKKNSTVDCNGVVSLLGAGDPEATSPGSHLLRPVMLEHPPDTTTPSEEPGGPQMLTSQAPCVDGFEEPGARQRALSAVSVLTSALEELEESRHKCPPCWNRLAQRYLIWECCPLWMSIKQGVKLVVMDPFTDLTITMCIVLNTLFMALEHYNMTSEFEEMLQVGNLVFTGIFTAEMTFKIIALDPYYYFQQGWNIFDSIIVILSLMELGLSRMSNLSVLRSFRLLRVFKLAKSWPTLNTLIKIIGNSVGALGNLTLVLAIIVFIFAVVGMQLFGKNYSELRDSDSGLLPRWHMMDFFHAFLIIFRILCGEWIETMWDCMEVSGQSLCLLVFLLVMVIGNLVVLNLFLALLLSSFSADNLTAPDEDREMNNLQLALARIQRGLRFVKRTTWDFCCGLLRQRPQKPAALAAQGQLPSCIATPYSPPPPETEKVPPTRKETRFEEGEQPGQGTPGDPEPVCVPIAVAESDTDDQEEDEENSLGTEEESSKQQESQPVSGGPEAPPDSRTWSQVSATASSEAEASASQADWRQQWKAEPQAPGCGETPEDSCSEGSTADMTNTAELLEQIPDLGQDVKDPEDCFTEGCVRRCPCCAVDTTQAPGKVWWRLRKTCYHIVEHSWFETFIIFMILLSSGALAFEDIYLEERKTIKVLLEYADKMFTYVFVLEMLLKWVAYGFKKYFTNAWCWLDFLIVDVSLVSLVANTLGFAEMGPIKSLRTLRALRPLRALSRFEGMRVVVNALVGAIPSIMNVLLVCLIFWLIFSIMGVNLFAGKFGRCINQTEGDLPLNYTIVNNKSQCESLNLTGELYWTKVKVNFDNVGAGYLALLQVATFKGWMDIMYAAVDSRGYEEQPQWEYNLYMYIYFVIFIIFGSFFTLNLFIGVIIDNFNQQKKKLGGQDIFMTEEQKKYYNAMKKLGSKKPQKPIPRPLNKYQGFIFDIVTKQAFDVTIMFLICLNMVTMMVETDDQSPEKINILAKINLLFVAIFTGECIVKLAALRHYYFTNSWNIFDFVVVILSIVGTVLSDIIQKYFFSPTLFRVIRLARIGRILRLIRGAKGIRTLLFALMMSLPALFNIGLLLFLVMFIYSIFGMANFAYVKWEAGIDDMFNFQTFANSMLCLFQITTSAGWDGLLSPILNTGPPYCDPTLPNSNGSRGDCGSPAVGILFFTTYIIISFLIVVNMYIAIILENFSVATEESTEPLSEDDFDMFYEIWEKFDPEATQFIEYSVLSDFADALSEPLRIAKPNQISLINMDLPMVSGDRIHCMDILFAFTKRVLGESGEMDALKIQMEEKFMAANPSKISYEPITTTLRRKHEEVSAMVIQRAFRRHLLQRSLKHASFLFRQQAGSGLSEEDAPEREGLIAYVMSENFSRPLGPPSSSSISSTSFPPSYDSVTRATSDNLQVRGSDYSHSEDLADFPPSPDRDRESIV

Going from CN(C)S(=O)(=O)NC(=O)c1cc(Cl)c(OCC23CC4CC(CC(C4)C2)C3)cc1F to COCCS(=O)(=O)NC(=O)c1cc(C2CC2)c(OCC23CC4CC(CC(C4)C2)C3)cc1F, the IC50 falls from 772 nM to 101 nM (7.6-fold).

Compared with CC1(C)CCc2cc(OCc3cc(F)c(C(=O)NS(=O)(=O)N4CCC4)cc3Cl)ccc2O1, O=C(NS(=O)(=O)N1CCC1)c1cc(C2CC2)c(OCC2(C(F)(F)F)CCCCC2)cc1F is 1.9-fold lower in IC50: 653 nM for the first, 350 nM for the second.

First: CS(=O)(=O)NC(=O)c1cc(C2CC2)c(OCC23CC4CC(C2)C(F)(F)C(C4)C3)cc1F
Second: O=C(NS(=O)(=O)N1CCOCC1)c1cc(C2CC2)c(OCC23CC4CC(CC(C4)C2)C3)cc1F
The IC50 of the first is 51-fold higher: 714 nM for the first, 14 nM for the second.

For O=C(NS(=O)(=O)N1CCC1)c1cc(C2CC2)c(OCC23CC4(F)CC(F)(CC(F)(C4)C2)C3)cc1F, the IC50 was 950 nM.
